In PMC8772704, “Quantification of Fosfomycin in Combination with Nine Antibiotics in Human Plasma and Cation-Adjusted Mueller-Hinton II Broth via LCMS” (Antibiotics, 2022):

Columns and labels:
[1] = Autosampler stability at 4 °C of extracted antibiotic-spiked plasma/CAMHB samples; settings: for Mean accuracy (%), Table S8 / Mean accuracy (%), Table S10: CAMHB extracted samples; for Mean accuracy (%), Table S8 / Mean accuracy (%), Table S7: 7 h autosampler 4 °C; for Mean accuracy (%), Table S10 / Mean accuracy (%), Table S9: 15 h autosampler 4 °C; for Mean accuracy (%), Table S7 / Mean accuracy (%), Table S9: plasma extracted samples
Description: (§1) The stability of fosfomycin in combination with other antibiotics in plasma/CAMHB was evaluated under various operational conditions. Spiked plasma/CAMHB samples were evaluated at 7 h and 15 h in the autosampler at 4 °C. Long-term stability was evaluated up to 4 weeks of antibiotic-spiked plasma/CAMHB samples at LQC, MQC, and HQC concentrations stored at −30 °C and −80 °C.

[2] = 32-day stability of stock solutions stored at −80 °C; assay type: physicochemical; settings: stock solution stored at -80 °C; peak area Day 32 vs Day 1
Description: Stability of stock solutions
All stock solutions of antibiotics and their corresponding stable-isotope variants were measured prior to cold storage at -80 °C and tested at 32 days later.
Stability was determined by comparing the peak area of each drug between its Day 1 and Day 32 measurement. Acceptable criteria for stability was met if the […]

[3] = Plasma concentrations in four patients on fosfomycin-based combination therapy (pilot clinical feasibility study, LCMS/MS)
Description: For 20 µL of plasma/CAMHB sample, 20 µL of water and 20 µL of stable-isotope as internal standard (IS) were added and vortexed. 180 µL of acetonitrile was added for protein precipitation and subsequently removed by centrifugation (12,700 rpm for 10 min at 25 °C). Finally, 15 µL of the supernatant was diluted with 225 µL formic acid in water (0.1% v/v), and 10 µL was injected for LCMS/MS analysis. For the calibration curve and QCs, 20 µL of the corresponding antibiotic standard working solution was added instead of water.
Samples were analyzed using a Nexera X2 LCMS 8060 system (Shimadzu, Kyoto, Japan). […] Electrospray ionization employing positive and negative ion mode with multiple reaction monitoring was used for analyte quantification (Table S1). Data were acquired and analyzed using Shimadzu LabSolutions (Version 5.97).
The assay method described in this paper has been applied to a pilot clinical feasibility study to evaluate the proportion of patients with sub-optimal β-lactam levels and the need for dose adjustments in infected patients with unpredictable pharmacokinetics. We described a case series of four patients where they received in vitro guided antibiotic combination therapy using a fosfomycin-based combination regimen to treat a carbapenem-resistant Gram-negative bacteria infection. These four patients were recruited into the BLAST-2 study as the combination regimen contains a β-lactam antibiotic. In this case series, two were undergoing intermittent hemodialysis, and two patients had normal renal function. In the two patients on hemodialysis, they were on a dosing regimen of 8 g of fosfomycin on dialysis days (3 g at least 4 h before dialysis session and 5 g after completion of dialysis). The remaining two patients received 8 g of fosfomycin given every 8 h as a prolonged infusion.
Blood samples (2–3 mL from an indwelling catheter) were collected four times over a dosing interval of the β-lactam dosing regimen and centrifuged (10 min at 3000 rpm) (Eppendorf 5425R). The resultant plasma was stored (within 15 min of collection) at −80 °C until assay.

[4] = Long-term storage stability of antibiotics in combination with fosfomycin spiked in plasma/CAMHB (−30 °C, −80 °C); assay type: physicochemical; settings: for Stability verdict (within ±15% of nominal): CAMHB samples stored at −30 °C, 4 weeks; for Mean accuracy (%), Table S17 / Mean accuracy (%), Table S16 / Mean accuracy (%), Table S18 / Mean accuracy (%), Table S15: CAMHB; for Mean accuracy (%), Table S17 / Mean accuracy (%), Table S16 / Mean accuracy (%), Table S18 / Mean accuracy (%), Table S11 / Mean accuracy (%), Table S13 / Mean accuracy (%), Table S12 / Mean accuracy (%), Table S14 / Mean accuracy (%), Table S15: combination with fosfomycin; for Mean accuracy (%), Table S17 / Mean accuracy (%), Table S13: 2 weeks at -80 °C; for Mean accuracy (%), Table S16 / Mean accuracy (%), Table S12: 4 weeks at -30 °C; for Mean accuracy (%), Table S18 / Mean accuracy (%), Table S14: 4 weeks at -80 °C; for Mean accuracy (%), Table S11 / Mean accuracy (%), Table S13 / Mean accuracy (%), Table S12 / Mean accuracy (%), Table S14: plasma; for Mean accuracy (%), Table S11 / Mean accuracy (%), Table S15: 2 weeks at -30 °C
Description: as §1

[5] = HQC: nominal mg/L CAZ 150, FEP 200, PIP 250, ATM 300, MEM 200, DOR 175, LVX 30, CEFT 250, TZB 87.5, TGC 20, AVI 30, FOF 1000
[6] = LQC: nominal 1 mg/L (levofloxacin, avibactam 0.5; fosfomycin 10)
[7] = MQC: nominal mg/L CAZ 75, FEP 100, PIP 150, ATM 150, MEM 100, DOR 87.5, LVX 15, CEFT 125, TZB 43.75, TGC 10, AVI 15, FOF 500

## C[C@@H](O)[C@H]1C(=O)N2C(C(=O)O)=C(S[C@@H]3CN[C@H](C(=O)N(C)C)C3)[C@H](C)[C@H]12 [Meropenem, meropenem]
[1]; HQC (nominal as E15)
  Mean accuracy (%), Table S8: 107.7%
  Mean accuracy (%), Table S10: 106.9%
  Mean accuracy (%), Table S9: 97.9%
[1]; LQC (nominal as E13)
  Mean accuracy (%), Table S8: 104.0%
  Mean accuracy (%), Table S10: 107.7%
  Mean accuracy (%), Table S9: 109.1%
[1]; MQC (nominal as E14)
  Mean accuracy (%), Table S8: 102.6%
  Mean accuracy (%), Table S10: 100.8%
  Mean accuracy (%), Table S9: 98.9%
[1]; [5]
  Mean accuracy (%), Table S7: 99.6%
[1]; [6]
  Mean accuracy (%), Table S7: 110.0%
[1]; [7]
  Mean accuracy (%), Table S7: 95.5%
[2]
  32 Day Stability (%): 100.48%
[3]; Patient 004, meropenem 2 g every 8 h as a 3-h infusion
  Mean total plasma concentration (range): 6.7 to 23.0 mg/L
[4]
  Stability verdict (within ±15% of nominal): instability
[4]; HQC (nominal as E15)
  Mean accuracy (%), Table S17: 99.6%
  Mean accuracy (%), Table S16: 66.1%
  Mean accuracy (%), Table S18: 97.4%
  Mean accuracy (%), Table S11: 93.3%
  Mean accuracy (%), Table S13: 105.4%
  Mean accuracy (%), Table S12: 91.8%
  Mean accuracy (%), Table S14: 96.1%
[4]; LQC (nominal as E13)
  Mean accuracy (%), Table S17: 104.3%
  Mean accuracy (%), Table S16: 60.1%
  Mean accuracy (%), Table S18: 97.9%
  Mean accuracy (%), Table S11: 86.6%
  Mean accuracy (%), Table S13: 104.2%
  Mean accuracy (%), Table S12: 106.1%
  Mean accuracy (%), Table S14: 101.8%
[4]; MQC (nominal as E14)
  Mean accuracy (%), Table S17: 97.3%
  Mean accuracy (%), Table S16: 63.5%
  Mean accuracy (%), Table S18: 95.4%
  Mean accuracy (%), Table S11: 89.7%
  Mean accuracy (%), Table S13: 95.0%
  Mean accuracy (%), Table S12: 93.8%
  Mean accuracy (%), Table S14: 95.2%

## C[C@@H]1O[C@@H]1P(=O)(O)O [Fosfomycin, fosfomycin]
[1]; HQC (nominal as E15)
  Mean accuracy (%), Table S8: 96.0%
  Mean accuracy (%), Table S10: 95.6%
  Mean accuracy (%), Table S9: 101.4%
[1]; LQC (nominal as E13)
  Mean accuracy (%), Table S8: 107.1%
  Mean accuracy (%), Table S10: 107.4%
  Mean accuracy (%), Table S9: 106.3%
[1]; MQC (nominal as E14)
  Mean accuracy (%), Table S8: 95.9%
  Mean accuracy (%), Table S10: 94.8%
  Mean accuracy (%), Table S9: 101.8%
[1]; [5]
  Mean accuracy (%), Table S7: 102.9%
[1]; [6]
  Mean accuracy (%), Table S7: 104.5%
[1]; [7]
  Mean accuracy (%), Table S7: 101.0%
[2]
  32 Day Stability (%): 95.80%
[3]; four patients, samples measured in triplicates
  Mean total plasma concentration (range): 11.3 to 746.9 mg/L
[4]; HQC (nominal as E15)
  Mean accuracy (%), Table S15: 98.5%
  Mean accuracy (%), Table S17: 96.3%
  Mean accuracy (%), Table S16: 94.6%
  Mean accuracy (%), Table S18: 101.8%
  Mean accuracy (%), Table S11: 98.4%
  Mean accuracy (%), Table S13: 95.6%
  Mean accuracy (%), Table S12: 94.0%
  Mean accuracy (%), Table S14: 97.7%
[4]; LQC (nominal as E13)
  Mean accuracy (%), Table S15: 103.1%
  Mean accuracy (%), Table S17: 110.6%
  Mean accuracy (%), Table S16: 103.6%
  Mean accuracy (%), Table S18: 104.7%
  Mean accuracy (%), Table S11: 102.2%
  Mean accuracy (%), Table S13: 101.8%
  Mean accuracy (%), Table S12: 104.5%
  Mean accuracy (%), Table S14: 100.8%
[4]; MQC (nominal as E14)
  Mean accuracy (%), Table S15: 94.7%
  Mean accuracy (%), Table S17: 99.5%
  Mean accuracy (%), Table S16: 95.4%
  Mean accuracy (%), Table S18: 98.2%
  Mean accuracy (%), Table S11: 92.1%
  Mean accuracy (%), Table S13: 94.6%
  Mean accuracy (%), Table S12: 92.4%
  Mean accuracy (%), Table S14: 90.6%

## CO/N=C(\C(=O)N[C@@H]1C(=O)N2C(C(=O)[O-])=C(C[N+]3(C)CCCC3)CS[C@H]12)c1csc(N)n1 [Cefepime, cefepime]
[1]; HQC (nominal as E15)
  Mean accuracy (%), Table S8: 96.7%
  Mean accuracy (%), Table S10: 101.7%
[1]; LQC (nominal as E13)
  Mean accuracy (%), Table S8: 112.0%
  Mean accuracy (%), Table S10: 106.6%
[1]; MQC (nominal as E14)
  Mean accuracy (%), Table S8: 103.5%
  Mean accuracy (%), Table S10: 114.1%
[1]; [5]
  Mean accuracy (%), Table S7: 86.5%
[1]; [6]
  Mean accuracy (%), Table S7: 94.2%
[1]; [7]
  Mean accuracy (%), Table S7: 101.1%
[2]
  32 Day Stability (%): 108.51%
[3]; Patient 003, intermittent hemodialysis, cefepime 1 g every 12 h as a 4-h infusion
  Mean total plasma concentration (range): 21.6 to 157.5 mg/L
[4]
  Stability verdict (within ±15% of nominal): instability
[4]; HQC (nominal as E15)
  Mean accuracy (%), Table S15: 95.3%
  Mean accuracy (%), Table S17: 94.8%
  Mean accuracy (%), Table S16: 93.2%
  Mean accuracy (%), Table S18: 93.2%
  Mean accuracy (%), Table S11: 89.3%
  Mean accuracy (%), Table S13: 89.0%
  Mean accuracy (%), Table S12: 89.6%
  Mean accuracy (%), Table S14: 95.7%
[4]; LQC (nominal as E13)
  Mean accuracy (%), Table S15: 100.9%
  Mean accuracy (%), Table S17: 108.8%
  Mean accuracy (%), Table S16: 91.1%
  Mean accuracy (%), Table S18: 107.6%
  Mean accuracy (%), Table S11: 98.6%
  Mean accuracy (%), Table S13: 102.0%
  Mean accuracy (%), Table S12: 100.5%
  Mean accuracy (%), Table S14: 111.6%
[4]; MQC (nominal as E14)
  Mean accuracy (%), Table S15: 102.0%
  Mean accuracy (%), Table S17: 98.7%
  Mean accuracy (%), Table S16: 94.9%
  Mean accuracy (%), Table S18: 102.8%
  Mean accuracy (%), Table S11: 87.2%
  Mean accuracy (%), Table S13: 94.3%
  Mean accuracy (%), Table S12: 97.4%
  Mean accuracy (%), Table S14: 101.3%
